Conditions: Liquid

CCCCCl [1-chlorobutane]
mass density [kg/m3]
Conditions | 100 kPa | 2500 kPa | 5000 kPa | 10000 kPa | 15000 kPa | 20000 kPa | 25000 kPa | 30000 kPa | 35000 kPa
283.15 K | 897.21 | 899.51 | 901.82 | 906.3 | 910.57 | 914.69 | 918.63 | 922.33 | 926.05
293.15 K | 886.18 | 888.63 | 891.13 | 895.89 | – | 904.73 | 908.9 | 912.88 | 916.77
298.15 K | 880.63 | 883.17 | 885.72 | 890.65 | 895.36 | 899.79 | 904.09 | 908.22 | 912.17
303.15 K | 874.92 | 877.59 | 880.23 | 885.43 | 890.24 | 894.84 | 899.24 | 903.46 | 907.47
313.15 K | 863.82 | 866.65 | 869.49 | 874.93 | 880.07 | 884.94 | 889.61 | 894.04 | 898.33
323.15 K | 852.43 | 855.47 | 858.54 | 864.35 | 869.85 | 875.03 | 879.94 | 884.62 | 889.1
333.15 K | 840.79 | 844.06 | 847.37 | 853.61 | 859.47 | 864.97 | 870.17 | 875.12 | 879.82

CCCCCC [hexane]
mass density [kg/m3]
Conditions | 100 kPa | 2500 kPa | 5000 kPa | 10000 kPa | 15000 kPa | 20000 kPa | 25000 kPa | 30000 kPa | 35000 kPa
283.15 K | 668.07 | 670.36 | 672.69 | 677.06 | 681.19 | 685.08 | 688.82 | 692.35 | 695.65
293.15 K | 659.18 | 661.67 | 664.17 | 668.87 | 673.27 | 677.4 | 681.33 | 685.07 | 688.63
298.15 K | 654.61 | 657.21 | 659.81 | 664.66 | 669.24 | 673.51 | 677.56 | 681.4 | 685.02
303.15 K | 649.97 | 652.7 | 655.36 | 660.53 | 665.23 | 669.63 | 673.81 | 677.77 | 681.45
313.15 K | 640.82 | 643.76 | 646.69 | 652.13 | 657.16 | 661.86 | 666.28 | 670.44 | 674.41
323.15 K | 631.41 | 634.61 | 637.8 | 643.69 | 649.12 | 654.14 | 658.84 | 663.23 | 667.4
333.15 K | 621.8 | 625.32 | 628.77 | 635.13 | 640.94 | 646.27 | 651.23 | 655.89 | 660.3
